Read-outs that look alike come from different tables or passages of the source.
What was measured:
human Nav1.7 = human Nav1.7 (Homo sapiens, UniProt Q15858); experiment: FLIPR or FLIPR TETRA sodium dye assay for sodium channel blocking activity; type: cell-based
hNav1.7 [1] = target: T1, hNav1.7 (Homo sapiens, UniProt Q15858); conditions: read-out: Nav1.7 Activity (μM) EP assay Ki; affinity for the inactivated state of the channel; hNav1.7 HEK-293 cells
hNav1.7 [2] = target: T1, hNav1.7; experiment: cell-based
Nav1.3 = Nav1.3 (Homo sapiens, UniProt Q9NY46); conditions: read-out: TTX IC50; cited from earlier work
Nav1.6 = Nav1.6 (Homo sapiens, UniProt Q9UQD0); conditions: read-out: TTX IC50; cited from earlier work
Nav1.8 = Nav1.8 (Homo sapiens, UniProt Q9Y5Y9); conditions: read-out: TTX IC50; cited from earlier work
Nav1.9 = Nav1.9 (Homo sapiens, UniProt Q9UI33); conditions: read-out: TTX IC50; cited from earlier work
Nav1.1 = Nav1.1 (Homo sapiens, UniProt P35498); conditions: read-out: TTX IC50; cited from earlier work
Nav1.2 = Nav1.2 (Homo sapiens, UniProt Q99250); conditions: read-out: TTX IC50; cited from earlier work
[3] = read-out: Nav1.7 Activity (μM) FLIPR assay IC50
[4] = recombinant HEK293 cells expressing human Nav1.7 alpha subunit, veratridine and scorpion venom as agonists, read-out: Nav1.7 Activity (μM) FLIPR assay IC50

human Nav1.7, sequence (Q15858 1-1977 isoform Q15858-3): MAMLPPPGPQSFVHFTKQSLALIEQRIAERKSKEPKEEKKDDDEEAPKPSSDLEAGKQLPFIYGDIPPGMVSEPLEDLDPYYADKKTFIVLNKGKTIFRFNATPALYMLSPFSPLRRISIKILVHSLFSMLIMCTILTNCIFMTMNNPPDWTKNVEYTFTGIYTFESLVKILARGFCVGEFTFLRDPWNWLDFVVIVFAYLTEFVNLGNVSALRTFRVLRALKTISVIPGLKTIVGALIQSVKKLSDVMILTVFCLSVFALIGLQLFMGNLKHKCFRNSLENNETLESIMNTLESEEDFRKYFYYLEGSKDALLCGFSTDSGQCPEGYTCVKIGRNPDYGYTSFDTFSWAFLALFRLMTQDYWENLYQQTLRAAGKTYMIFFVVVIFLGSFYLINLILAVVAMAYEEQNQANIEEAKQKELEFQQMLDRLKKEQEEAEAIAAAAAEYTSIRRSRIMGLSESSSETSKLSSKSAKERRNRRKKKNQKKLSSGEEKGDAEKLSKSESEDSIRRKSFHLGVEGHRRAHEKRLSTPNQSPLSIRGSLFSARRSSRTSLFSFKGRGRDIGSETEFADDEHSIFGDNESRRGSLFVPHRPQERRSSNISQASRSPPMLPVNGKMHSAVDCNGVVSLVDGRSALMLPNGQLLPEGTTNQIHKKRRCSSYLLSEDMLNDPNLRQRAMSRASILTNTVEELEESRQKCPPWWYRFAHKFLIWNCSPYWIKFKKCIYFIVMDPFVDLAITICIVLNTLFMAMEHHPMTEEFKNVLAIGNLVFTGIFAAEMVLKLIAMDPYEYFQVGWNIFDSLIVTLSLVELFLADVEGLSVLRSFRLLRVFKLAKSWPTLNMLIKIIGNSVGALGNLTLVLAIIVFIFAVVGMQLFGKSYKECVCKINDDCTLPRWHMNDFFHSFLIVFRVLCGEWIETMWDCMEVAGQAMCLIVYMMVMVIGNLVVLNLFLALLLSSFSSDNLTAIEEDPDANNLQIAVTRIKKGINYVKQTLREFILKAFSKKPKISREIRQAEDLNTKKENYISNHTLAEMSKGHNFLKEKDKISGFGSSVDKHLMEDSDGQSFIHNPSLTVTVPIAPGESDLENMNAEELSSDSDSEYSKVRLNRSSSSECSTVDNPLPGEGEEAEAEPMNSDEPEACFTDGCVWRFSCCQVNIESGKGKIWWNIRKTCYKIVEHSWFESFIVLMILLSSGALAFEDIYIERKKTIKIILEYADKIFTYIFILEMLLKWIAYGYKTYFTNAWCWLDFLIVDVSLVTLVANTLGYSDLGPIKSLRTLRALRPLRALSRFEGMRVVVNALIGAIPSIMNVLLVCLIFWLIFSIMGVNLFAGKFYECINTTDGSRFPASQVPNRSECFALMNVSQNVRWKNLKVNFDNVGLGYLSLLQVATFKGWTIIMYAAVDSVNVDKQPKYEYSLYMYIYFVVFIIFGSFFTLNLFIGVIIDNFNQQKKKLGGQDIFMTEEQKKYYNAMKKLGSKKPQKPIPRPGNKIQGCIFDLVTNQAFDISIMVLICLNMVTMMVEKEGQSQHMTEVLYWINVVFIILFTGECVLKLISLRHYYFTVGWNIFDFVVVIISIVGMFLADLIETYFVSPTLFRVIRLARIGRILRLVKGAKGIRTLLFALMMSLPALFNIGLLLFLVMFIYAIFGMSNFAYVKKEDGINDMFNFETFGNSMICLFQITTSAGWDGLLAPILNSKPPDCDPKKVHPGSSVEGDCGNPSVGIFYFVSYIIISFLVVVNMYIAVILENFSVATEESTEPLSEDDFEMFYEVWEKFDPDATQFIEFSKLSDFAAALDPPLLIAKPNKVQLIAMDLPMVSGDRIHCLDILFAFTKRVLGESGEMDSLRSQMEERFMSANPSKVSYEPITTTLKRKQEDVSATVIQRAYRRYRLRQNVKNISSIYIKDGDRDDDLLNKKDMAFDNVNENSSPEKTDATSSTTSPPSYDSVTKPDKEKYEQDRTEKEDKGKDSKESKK
T1 sequence (Q15858 1-1977 isoform Q15858-3): as above
Nav1.3, sequence (Q9NY46 whole entry, looked up): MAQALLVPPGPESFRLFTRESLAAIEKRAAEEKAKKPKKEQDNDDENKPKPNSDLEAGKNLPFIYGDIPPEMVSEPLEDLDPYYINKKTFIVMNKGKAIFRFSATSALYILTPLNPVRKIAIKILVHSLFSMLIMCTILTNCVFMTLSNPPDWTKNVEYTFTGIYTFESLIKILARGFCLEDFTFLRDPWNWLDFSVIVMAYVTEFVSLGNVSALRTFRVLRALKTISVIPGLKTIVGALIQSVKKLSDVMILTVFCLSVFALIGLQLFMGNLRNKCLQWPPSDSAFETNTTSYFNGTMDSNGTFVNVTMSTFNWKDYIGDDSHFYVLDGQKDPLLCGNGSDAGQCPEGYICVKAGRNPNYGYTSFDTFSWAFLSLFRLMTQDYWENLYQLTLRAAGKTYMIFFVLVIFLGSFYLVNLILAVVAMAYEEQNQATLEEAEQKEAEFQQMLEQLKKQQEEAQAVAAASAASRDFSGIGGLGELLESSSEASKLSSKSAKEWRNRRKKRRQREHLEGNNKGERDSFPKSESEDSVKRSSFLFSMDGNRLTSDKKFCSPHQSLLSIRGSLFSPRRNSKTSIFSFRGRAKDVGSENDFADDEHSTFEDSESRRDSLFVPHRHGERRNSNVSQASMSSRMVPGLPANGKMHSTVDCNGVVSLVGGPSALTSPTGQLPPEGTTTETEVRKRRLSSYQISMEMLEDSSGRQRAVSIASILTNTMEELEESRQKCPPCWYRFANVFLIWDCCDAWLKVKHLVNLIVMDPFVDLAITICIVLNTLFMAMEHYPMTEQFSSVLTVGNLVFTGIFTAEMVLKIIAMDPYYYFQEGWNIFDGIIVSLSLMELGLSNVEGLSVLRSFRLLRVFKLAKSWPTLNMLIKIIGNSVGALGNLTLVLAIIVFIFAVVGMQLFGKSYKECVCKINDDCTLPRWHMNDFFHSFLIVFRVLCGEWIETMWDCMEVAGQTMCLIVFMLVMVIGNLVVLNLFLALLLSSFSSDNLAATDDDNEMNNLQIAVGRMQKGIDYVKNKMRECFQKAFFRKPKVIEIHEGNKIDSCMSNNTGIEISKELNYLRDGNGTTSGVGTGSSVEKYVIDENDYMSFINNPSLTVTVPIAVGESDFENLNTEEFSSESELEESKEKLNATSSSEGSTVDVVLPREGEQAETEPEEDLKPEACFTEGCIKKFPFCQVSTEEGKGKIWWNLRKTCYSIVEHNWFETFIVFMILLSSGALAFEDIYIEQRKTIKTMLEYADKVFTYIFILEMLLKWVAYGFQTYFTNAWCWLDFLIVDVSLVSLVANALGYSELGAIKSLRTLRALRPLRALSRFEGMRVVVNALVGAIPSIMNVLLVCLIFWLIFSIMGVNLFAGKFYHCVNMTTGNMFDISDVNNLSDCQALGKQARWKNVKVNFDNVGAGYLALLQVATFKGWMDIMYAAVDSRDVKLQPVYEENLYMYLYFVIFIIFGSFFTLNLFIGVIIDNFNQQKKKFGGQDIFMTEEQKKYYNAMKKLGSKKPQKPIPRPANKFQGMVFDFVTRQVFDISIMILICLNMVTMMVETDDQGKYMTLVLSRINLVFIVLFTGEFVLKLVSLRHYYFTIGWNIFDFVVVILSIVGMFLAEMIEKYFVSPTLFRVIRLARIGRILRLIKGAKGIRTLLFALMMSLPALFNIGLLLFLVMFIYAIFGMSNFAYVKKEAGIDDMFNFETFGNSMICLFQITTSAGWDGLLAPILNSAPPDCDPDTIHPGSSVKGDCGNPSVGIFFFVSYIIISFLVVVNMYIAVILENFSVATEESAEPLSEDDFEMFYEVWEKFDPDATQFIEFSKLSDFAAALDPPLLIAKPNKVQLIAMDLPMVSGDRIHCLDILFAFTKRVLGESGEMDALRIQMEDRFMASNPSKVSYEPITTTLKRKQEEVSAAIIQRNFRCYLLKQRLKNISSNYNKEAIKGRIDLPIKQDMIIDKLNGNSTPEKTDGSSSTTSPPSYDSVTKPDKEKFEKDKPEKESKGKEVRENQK

CCN1c2ccc(Cl)cc2CCc2cc(-c3cccc(C(N)=O)n3)ccc21 [Compound 41, 6-(8-chloro-5-ethyl-10,11-dihydro-5H-dibenzo[b,f]azepin-2-yl)picolinamide]
IC50 (human Nav1.7): > 20 µM

CN1Cc2cc(C(F)(F)F)ccc2Oc2ccc(-c3cccc([C@H](O)CO)n3)cc21 [Compound 45, (S)-1-(6-(10-methyl-2-(trifluoromethyl)-10,11-dihydrodibenzo[b,f][1,4]oxazepin-8-yl)pyridin-2-yl)ethane-1,2-diol]
IC50 (human Nav1.7; [3]): 1.03 ± 0.067 µM

CN1Cc2cc(-c3cccc([C@H](O)[C@@H](O)C(N)=O)n3)ccc2Oc2ccc(C(F)(F)F)cc21 [Compound 48, (2R,3S)-2,3-dihydroxy-3-(6-(10-methyl-8-(trifluoromethyl)-10,11-dihydrodibenzo[b,f][1,4]oxazepin-2-yl)pyridin-2-yl)propanamide]
IC50 (human Nav1.7; [3]): 1.05 ± 0.069 µM

CC(=O)N1c2ccc(Cl)cc2CCc2cc(-c3cccc(C(N)=O)n3)ccc21 [Compound 42, 6-(5-acetyl-8-chloro-10,11-dihydro-5H-dibenzo[b,f]azepin-2-yl)picolinamide]
IC50 (human Nav1.7; [3]): 7.62 ± 0.797 µM
Ki (hNav1.7 [1]): 3.03 ± 1.26 µM

C[C@H](Nc1cc(C(N)=O)nc(-c2ccc3c(c2)CN(C)c2cc(C(F)(F)F)ccc2O3)n1)C(N)=O [Compound 47, (S)-6-((1-amino-1-oxopropan-2-yl)amino)-2-(10-methyl-8-(trifluoromethyl)-10,11-dihydrodibenzo[b,f][1,4]oxazepin-2-yl)pyrimidine-4-carboxamide]
IC50 (human Nav1.7; [4]): 4.79 ± 0.628 µM

NC(=O)CN1Cc2cc(-c3cccc([C@H](O)CO)n3)ccc2Oc2ccc(C(F)(F)F)cc21 [Compound 49, (S)-2-(2-(6-(1,2-dihydroxyethyl)pyridin-2-yl)-8-(trifluoromethyl)dibenzo-[b,f][1,4]oxazepin-10(11H)-yl)acetamide]
Ki (hNav1.7 [2]): 1800 ± 794 nM

NC(=O)c1cccc(-c2ccc3c(c2)CCc2cc(Cl)ccc2N3)n1 [Compound 40, 6-(8-chloro-10,11-dihydro-5H-dibenzo[b,f]azepin-2-yl)picolinamide]
IC50 (human Nav1.7; [3]): 1.96 ± 0.036 µM
Ki (hNav1.7 [1]): 0.648 ± 0.123 µM

CN1c2ccc(Cl)cc2CCc2cc(-c3cccc(C(N)=O)n3)ccc21 [Compound 39, 6-(8-chloro-5-methyl-10,11-dihydro-5H-dibenzo[b,f]azepin-2-yl)picolinamide]
IC50 (human Nav1.7; [3]): 0.842 ± 0.04 µM

NC1=N[C@H](O)[C@H]2[C@H]3O[C@]4(O)O[C@@H]([C@@H](O)[C@@]2(N1)[C@@H]4O)[C@]3(O)CO [TTX, tetrodotoxin]
IC50 (Nav1.3): 15 nM
IC50 (Nav1.6): 6 nM
IC50 (Nav1.8): 50000 nM
IC50 (Nav1.9): 1000 nM
IC50 (Nav1.1): 10 nM
IC50 (Nav1.2): 10 nM

CN1c2ccc(-c3cccc([C@H](O)CO)n3)cc2CCc2cc(C(F)(F)F)ccc21 [Compound 46, (S)-1-(6-(5-methyl-8-(trifluoromethyl)-10,11-dihydro-5H-dibenzo[b,f]azepin-2-yl)pyridin-2-yl)ethane-1,2-diol]
IC50 (human Nav1.7; [3]): 1.08 ± 0.106 µM
Ki (hNav1.7 [1]): 1.03 ± 0.227 µM

CN1Cc2cc(-c3cccc([C@H](O)CO)n3)ccc2Oc2ccc(C(F)(F)F)cc21 [Compound 44, (S)-1-(6-(10-methyl-8-(trifluoromethyl)-10,11-dihydrodibenzo[b,f][1,4]oxazepin-2-yl)pyridin-2-yl)ethane-1,2-diol]
IC50 (human Nav1.7; [4]): 0.373 ± 0.047 µM

OC[C@@H](O)c1cccc(-c2ccc3c(c2)CNc2cc(C(F)(F)F)ccc2O3)n1 [Compound 43, (S)-1-(6-(8-(trifluoromethyl)-10,11-dihydrodibenzo[b,f][1,4]oxazepin-2-yl)pyridin-2-yl)ethane-1,2-diol]
IC50 (human Nav1.7; [3]): 2.57 ± 0.059 µM

From US9695144B2, “Dibenzazepine derivatives and use thereof” (Purdue Pharma L.P., priority 2013, dated 2017)
